Assay [1] deals with BEAS-2B cells. As to the kind of experiment: Interleukin-8 secretion by cultured human respiratory epithelium (ELISA). It is filed as cell-based. The conditions noted are these: 1 hr pretreatment. On the procedure: J. Physiol. […] J. Physiol. […] Statistical Analysis. […] Significance was assumed at p < 0.05.
After 24 hours (for TNF stimulated cells) or 6 hours (for ROFA stimulated cells) media was collected and centrifuged to remove debris. […] Results are means ± standard errors of 4-6 experiments per treatment group. DMSO vehicle, as an antioxidant, reduces IL-8 secretion (a known effect) but BrEA inhibits much more profoundly.
(In general: An ELISA detects its analyte on a solid surface through an enzyme-linked reagent.)

Assay [2] has as its system p21^ras. As to the kind of experiment: Immunoblot of p21ras in membranes of cultured airway smooth muscle cells. It is filed as cell-based, rat. The conditions noted are these: 10% FBS + 10 µM, 24 hours (Figure 6B). As to the method:
To determine if 16α-bromoepiandrosterone reduced cellular proliferation by interfering with mevalonic acid synthesis, cells were stimulated with FBS and grown in the presence or absence of 16α-BrEA, with or without addition of 6 mM DL-mevalonic acid lactone to growth medium. After 36 hours growth was measured by MTT reduction. To evaluate whether isoprenylation and membrane localization of Ras was impaired, confluent cells on 75-cm^2 Petri dishes were growth arrested for 24 hours in 0.5% FBS and DMEM with and without 16α-BrEA or DMSO vehicle. Some dishes were then stimulated 30 minutes with 10% FBS in DMEM. Cells were lysed, membranes were isolated and immunoblotting was performed as described below to determine if treatment with DHEA and 16α-BrEA depleted p21^ras.
To determine if DHEA or its analogs induced programmed cell death, confluent cultures in 6 well plastic plates were treated with 50 or 250 µM DHEA, 10 or 50 µM 16α-BrEA, or vehicle (25 µl DMSO). After 2 hours cells were washed twice with DPBS and scraped on ice into 1.5 ml microfuge tubes and centrifuged 250 g for 5 minutes at 4°C. […] The linear increase in absorbance at 340 nm was monitored at 25°C for 300 seconds. Activity was expressed as units/mg protein, where 1.0 unit will oxidase 1.0 µmole of G6P to 6-phospho-D-gluconate per min in the presence of NADP. Protein was measured using the BCA protein assay (Rockford, IL). […]

On to `C[C@]12CC[C@H](O)C[C@@H]1CC[C@@H]1[C@@H]2CC[C@]2(C)C(=O)[C@H](Br)C[C@@H]12` [16α-BrEA, 16α-bromoepiandrosterone], for which the IL-8 in assay [1] (ROFA Stimulated BEAS Cells (ROFA 50 µg/ml, 6 hr), 25 µM, ROFA + DMSO 410 ± 18) is 123 ± 5 pg/mL; in assay [1] (TNF Stimulated BEAS Cells (TNFα 40 ng/ml, 24 hr), 2 µM, TNF + DMSO 93 ± 14), 104 ± 31 pg/mL; in assay [1] (TNF Stimulated BEAS Cells (TNFα 40 ng/ml, 24 hr), 10 µM, TNF + DMSO 93 ± 14) it was 52 ± 18 pg/mL; in assay [1] (TNF Stimulated BEAS Cells (TNFα 40 ng/ml, 24 hr), 50 µM, TNF + DMSO 93 ± 14), 27 ± 2 pg/mL. Also, the “p21^ras in membranes of cultured airway smooth muscle cells” value in assay [2] is “does not deplete p21^ras”.

The values above are taken from patent EP0934745B1, “Use of androsterone derivatives for inhibiting DNA binding of ap-1 and airway smooth muscle proliferation” (CHARLOTTE-MECKLENBURG HOSPITAL doing business as Carolinas …, priority 1998, dated 1999).
